These results are taken from patent US9630961B2, “Arginine methyltransferase inhibitors and uses thereof” (Epizyme, Inc., priority 2013, dated 2017).

The test system of test [1] is mono-methyl arginine in RKO cells. The experiment in a line: RKO Methylation Assay, In Cell Western for mono-methyl arginine and DNA content. The note with it: Homo sapiens, 72 hours, percent activation of mono-methyl arginine signal. The class given is cell-based. The text has this: RKO Methylation Assay RKO adherent cells were purchased from ATCC (American Type Culture Collection), Manassas, Va., USA. DMEM/Glutamax medium, penicillin-streptomycin, heat inactivated fetal bovine serum, 0.05% trypsin and D-PBS were purchased from Life Technologies, Grand Island, N.Y., USA. Odyssey blocking buffer, 800CW goat anti-rabbit IgG (H+L) antibody, and Licor Odyssey infrared scanner were purchased from Licor Biosciences, Lincoln, Nebr., USA. Mono-methyl arginine antibody was purchased from Cell Signaling Technology, Danvers, Mass., USA. Methanol was purchased from VWR, Franklin, Mass., USA. 10% Tween 20 was purchased from KPL, Inc., Gaithersburg, Md., USA. DRAQ5 was purchased from Biostatus Limited, Leicestershire, UK. RKO adherent cells were maintained in growth medium (DMEM/Glutamax medium supplemented with 10% v/v heat inactivated fetal bovine serum and 100 units/mL penicillin-streptomycin) and cultured at 37° C. under 5% CO2. Cell Treatment, in Cell Western (ICW) for Detection of Mono-Methyl Arginine and DNA Content. RKO cells were seeded in assay medium at a concentration of 20,000 cells per mL to a poly-D-lysine coated 384 well culture plate (BD Biosciences 356697) with 50 μL per well. Compound (100 nL) from a 96-well source plate was added directly to 384 well cell plate. Plates were incubated at 37° C., 5% CO2 for 72 hours. After three days of incubation, plates were brought to room temperature outside of the incubator for ten minutes and blotted on paper towels to remove cell media. 50 μL of ice cold 100% methanol was added directly to each well and incubated for 30 min at room temperature. After 30 min, plates were transferred to a Biotek EL406 plate washer and washed 2 times with 100 μL per well of wash buffer (IX PBS). Next 60 μL per well of Odyssey blocking buffer (Odyssey Buffer with 0.1% Tween 20 (v/v)) were added to each plate and incubated 1 hour at room temperature. Blocking buffer was removed and 20 μL per well of primary antibody was added (mono-methyl arginine diluted 1:200 in Odyssey buffer with 0.1% Tween 20 (v/v)) and plates were incubated overnight (16 hours) at 4° C. Plates were washed 5 times with 100 μL per well of wash buffer. Next 20 μL per well of secondary antibody was added (1:200 800CW goat anti-rabbit IgG (H+L) antibody, 1:1000 DRAQ5 (Biostatus limited) in Odyssey buffer with 0.1% Tween 20 (v/v)) and incubated for 1 hour at room temperature. The plates were washed 5 times with 100 μL per well wash buffer then 2 times with 100 μL per well of water. Plates were allowed to dry at room temperature then imaged on the Licor Odyssey machine which measures integrated intensity at 700 nm and 800 nm wavelengths. Both 700 and 800 channels were scanned. Calculations: First, the ratio for each well was determined by: Each plate included fourteen control wells of DMSO only treatment (minimum activation) as well as fourteen control wells for maximum activation treated with 20 μM of a reference compound. The average of the ratio values for each control type was calculated and used to determine the percent activation for each test well in the plate. Reference compound was serially diluted three-fold in DMSO for a total of nine test concentrations, beginning at 20 μM. Percent activation was determined and EC30 curves were generated using triplicate wells per concentration of compound.

The target in a further test is T1, PRMT6 (Homo sapiens, UniProt Q96LA8).
T1 construct: Flag-PRMT6-His; made in house; host or cells: HEK 293F cells (BacMam virus)
T1 sequence (Q96LA8 with tags, fused parts or gaps): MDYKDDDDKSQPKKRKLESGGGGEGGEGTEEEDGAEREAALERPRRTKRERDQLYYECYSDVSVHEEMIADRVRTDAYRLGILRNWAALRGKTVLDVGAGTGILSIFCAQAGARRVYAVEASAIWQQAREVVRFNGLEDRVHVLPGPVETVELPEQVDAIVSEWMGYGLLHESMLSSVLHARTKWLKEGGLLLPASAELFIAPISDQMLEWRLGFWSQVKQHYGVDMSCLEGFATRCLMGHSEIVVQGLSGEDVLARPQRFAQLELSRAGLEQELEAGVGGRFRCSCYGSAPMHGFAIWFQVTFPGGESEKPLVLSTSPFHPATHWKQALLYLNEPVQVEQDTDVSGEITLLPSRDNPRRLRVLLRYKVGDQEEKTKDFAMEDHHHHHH
The experiment in a line: PRMT6 Biochemical Assay (3H-SAM Flashplate, peptide substrate). The note with it: 30 min preincubation, room temperature. The text has this: S-adenosylmethionine (SAM), S-adenosylhomocysteine (SAH), bicine, Tween20, dimethylsulfoxide (DMSO), bovine skin gelatin (BSG), sodium butyrate and Tris(2-carboxyethyl)phosphine hydrochloride solution (TCEP) were purchased from Sigma-Aldrich at the highest level of purity possible. ^3H-SAM was purchase from American Radiolabeled Chemicals with a specific activity of 80 Ci/mmol. 384-well streptavidin Flashplates were purchased from PerkinElmer.
Peptide representative of human histone H4 residues 36-50 was synthesized with an N-terminal linker-affinity tag motif and a C-terminal amide cap by 21st Century Biochemicals. The peptide was purified by high-performance liquid chromatography (HPLC) to greater than 95% purity and confirmed by liquid chromatography mass spectrometry (LC-MS). The sequence was Biot-Ahx-[…]-amide and contained a monomethylated lysine at position 44 (SEQ ID NO.:5).
Full-length human PRMT6 (NM_018137.2) transcript clone was amplified from an HEK 293 cDNA library, incorporating a flanking 5′ sequence encoding a FLAG tag ([…]) (SEQ ID NO.:6) fused directly to Ser 2 of PRMT6 and a 3′ sequence encoding a hexa His sequence (HHHHHH) fused directly to Asp 375. The amplified gene was subcloned into pFastBacMam (Viva Biotech).
Recombinant baculovirus were generated according to Bac-to-Bac kit instructions (Life Technologies). […] Infections were carried out at 37° C. for 48 hours, harvested by centrifugation, and stored at −80° C. for purification.
Column was washed with 20 mM imidazole in the same buffer and Flag-PRMT6-His was eluted with 150 mM imidazole. Pooled fractions were dialysed against buffer Ni-A and further purified by anti-flag M2 affinity chromatography. Flag-PRMT6-His was eluted with 200 ug/ml FLAG peptide in the same buffer. Pooled fractions were dialysed in 20 mM Tris, 150 mM NaCl, 10% glycerol and 5 mM β-mercaptoethanol, pH 7.8. The purity of recovered protein was 95%.
General Procedure for PRMT6 Enzyme Assays on Peptide Substrates.
The assays were all performed in a buffer consisting of 20 mM Bicine (pH=7.6), 1 mM TCEP, 0.005% BSG, and 0.002% Tween 20, prepared on the day of use. Compounds in 100% DMSO (1 ul) were spotted into a polypropylene 384-well V-bottom plates (Greiner) using a Platemate Plus outfitted with a 384-channel head (Thermo Scientific). DMSO (1 ul) was added to Columns 11, 12, 23, 24, rows A-H for the maximum signal control and 1 ul of SAH, a known product and inhibitor of PRMT6, was added to columns 11, 12, 23, 24, rows I-P for the minimum signal control. A cocktail (40 ul) containing the PRMT6 enzyme was added by Multidrop Combi (Thermo-Fisher). The compounds were allowed to incubate with PRMT6 for 30 min at room temperature, then a cocktail (10 ul) containing SAM and peptide was added to initiate the reaction (final volume=51 ul). The final concentrations of the components were as follows: PRMT6 was 1 nM, ^3H-SAM was 200 nM, non-radiolabeled SAM was 250 nM, peptide was 75 nM, SAH in the minimum signal control wells was 1 mM, and the DMSO concentration was 2%. The assays were stopped by the addition of non-radiolabeled SAM (10 ul) to a final concentration of 400 uM, which dilutes the ^3H-SAM to a level where its incorporation into the peptide substrate is no longer detectable. 50 ul of the reaction in the 384-well polypropylene plate was then transferred to a 384-well Flashplate and the biotinylated peptides were allowed to bind to the streptavidin surface for at least 1 hour before being washed once with 0.1% Tween20 in a Biotek ELx405 plate washer. The plates were then read in a PerkinElmer TopCount plate reader to measure the quantity of ^3H-labeled peptide bound to the Flashplate surface, measured as disintegrations per minute (dpm) or alternatively, referred to as counts per minute (cpm).
Where dpm=disintegrations per minute, cmpd=signal in assay well, and min and max are the respective minimum and maximum signal controls. […]

As to `Cc1nn(C)c(C)c1-c1n[nH]cc1CN(C)CCN` [Compound 26], the EC30 in test [1] is at least 12 µM. Further, the IC50 at PRMT6 was at least 10 µM.
